Test results as given in patent publication US5925618A, “Peptides useful as somatostatin antagonists” (American Cyanamid Company, priority 1998, dated 1999).
Square brackets hold non-standard residues; d marks the D form. Peptide text beside a SMILES is read from it.

What was measured:
Male Sprague-Dawley rats = experiment: Serum growth hormone levels in anaesthetized rats (peptide 1, BIM 23014C); assay type: in vivo, rat
Protocol: Evaluation in anaesthetized rats. Male Sprague-Dawley rats are anaesthetized with Sagatal and fitted so as to allow efficient intravenous treatment with control and test compounds as well as frequent blood sampling. Blood samples are tested for growth hormone (GH) levels by radioimmunoassay. Thirty minutes after the initiation of blood sampling, rats are given 5 μg, 25 μg or 50 μg of peptide 1.

rat SSTR2 = target: T1, rat SSTR2 (Rattus norvegicus, UniProt P30680); experiment: cAMP accumulation in forskolin-stimulated GH4 C1/SSTR2 cells; assay type: cell-based
T1 construct: expressed in transfected cells; host or cells: GH4C1 rat pituitary tumor cells
T1 sequence (P30680 whole entry): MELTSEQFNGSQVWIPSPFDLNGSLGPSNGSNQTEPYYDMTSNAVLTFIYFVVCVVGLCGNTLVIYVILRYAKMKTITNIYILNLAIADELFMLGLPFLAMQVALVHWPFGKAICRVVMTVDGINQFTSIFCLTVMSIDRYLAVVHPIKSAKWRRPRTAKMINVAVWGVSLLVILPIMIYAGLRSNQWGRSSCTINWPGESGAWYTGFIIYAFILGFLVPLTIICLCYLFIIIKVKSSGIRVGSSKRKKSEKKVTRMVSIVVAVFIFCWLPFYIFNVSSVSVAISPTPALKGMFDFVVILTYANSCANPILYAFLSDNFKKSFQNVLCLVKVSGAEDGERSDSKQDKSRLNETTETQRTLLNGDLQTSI
Source text: A primary effect of SRIF upon mammalian cells is the reduction of cyclic adenosine 3',5'-monophosphate(cAMP) levels, via inhibition of adenylyl cyclase. This is the basis of a common assay for SRIF agonists and antagonists, whereby SRIF agonists reduce artificially stimulated cAMP levels, and SRIF antagonists reverse the effect of SRIF. The rat pituitary tumor cell line GH4 C1 predominantly expresses SSTR2, and responds to SRIF and to forskolin, a stimulator of adenylate cyclase (see C. M. Eppler, et al., J. Biol. Chem., 267, 15603-15612, 1992, incorporated herein by reference). A highly sensitive assay for SRIF agonists and antagonists results from additionally transfecting GH4 C1 cells with the cloned rat SSTR2, (see L. A. Price, et al., Molecular and Cellular Biology, 15, 6188-6195, 1995, incorporated herein by reference). This increases the response to SRIF and provides a greater dynamic range for the measurement of SRIF antagonist activity.
Stimulation of cells. GH4 C1 /SSTR2 cells, grown in DMEM with 10% bovine serum, are released from a tissue culture dish by incubation for several minutes at 37° C. with PBS containing 0.5 mM EDTA. Cells are washed in induction buffer (PBS containing 100 μM IBMX (an inhibitor of cAMP breakdown) and 2 mM CaCl2) at room temperature, and resuspended at 2×10^6 /mL in induction buffer. Into each well of a 96-well tray are added 50 μL of a 2× concentration of stimulants in induction buffer. These include (at final concentration) 1.25 μM forskolin, 100 nM SRIF or 10 nM of the SSTR2-selective agonist MK678 and test peptides at various concentrations. To initiate stimulation of the cells, 50 μL (100,000) cells are added to each well, mixed by shaking 10 seconds on a plate shaker and placed at 37° C. for 15 minutes. Stimulation is arrested and cells are lysed by adding 15 μL 0.33N HCl to each well and incubating the plate for 30 minutes at 37° C. Samples are neutralized by addition of 15 μL 0.25N NaOH/50 mM Hepes pH 7.4. Baseline cAMP levels are determined in samples with no added forskolin or SRIF, and each treatment is performed in triplicate.
cAMP assay. To measure accumulated cAMP in the samples, a radioimmunoassay is employed. The scintillation proximity assay (SPA, Amersham, Arlington Heights, Ill.) allows the rapid measurement of ^125 I cAMP bound to a specific antibody without separating bound radioligand from free radioligand. Each of the following reagents (50 μL) are added per well in a 96-well tray: supernatants from the cell stimulation; ^125 I cAMP; SPA beads conjugated to monkey anti-rabbit IgG antibodies; and rabbit anti-cAMP antibodies. For the standard curve, known amounts of cAMP (0.2-12.8 pmol) are added in place of cell supernatants. The 96-well tray is sealed, shaken at room temperature overnight and measured for bound radioligand in a MicroBeta liquid scintillation counter (Wallac, Gaithersburg, Md.). The standard curve is determined for each experiment by performing a nonlinear regression (exponential decay) analysis of cpm measured for the cAMP standards vs. their log concentrations, and test sample values are determined by using Prism software (Graphpad Software Inc., San Diego, Calif.) and are shown in Table II and FIG. 1. FIG. I illustrates the antagonist activity of Peptide 1.
The intrinsic activity of an SRIF antagonist is the percent reversal of the SSTR2, activation by SRIF or MK678, wherein 0% is defined by cAMP levels in samples treated with forskolin plus SRIF or MK678 and 100% is the cAMP level measured after treatment with forskolin alone. Therefore, increased intrinsic activity of a test compound indicates increased antagonist activity of said test compound.
FIG. […]
An inverse agonist is a compound that is not only a pure antagonist (i.e. lacking agonist activity), but also blocks the constitutive activity of an unoccupied receptor. One indication of inverse agonist activity is the ability of a SRIF antagonist to increase cAMP levels in the absence of added SRIF. […]

`CC[C@@H](C)[C@@H](NC(=O)[C@@H](Cc1ccccc1)NC(=O)[C@@H](Cc1c[nH]cn1)NC(C)=O)C(=O)N[C@H](CCCNC(=N)N)C(=O)N[C@H](Cc1c[nH]c2ccccc12)C(=O)N[C@H](Cc1ccccc1)C(N)=O` [Peptide 1, h-f-i-r-w-f] (Ac-[dH][dF][dI][dR][dW][dF]-NH2) was tested, and the SGH (Male Sprague-Dawley rats; 5 μg group, 90 min (time of 2nd peptide 1 dose, after BIM 23014C)) was 2.4 ng/mL, the SGH (Male Sprague-Dawley rats; 5 μg peptide 1 at 30 min, sample 35 min) was 17.5 ng/mL and the SGH (Male Sprague-Dawley rats; 5 μg peptide 1 at 30 min, sample 40 min) was 14.9 ng/mL. The SGH (Male Sprague-Dawley rats; 5 μg peptide 1 at 30 min, sample 45 min) was 15.7 ng/mL, the SGH (Male Sprague-Dawley rats; 5 μg peptide 1 group, i.v., 30 min (time of 1st peptide 1 dose)) was 12.2 ng/mL and the “serum GH levels after first dose” value (Male Sprague-Dawley rats; 5 μg, 25 μg or 50 μg i.v. at 30 min) was “significant increase in serum GH levels resulting from the highest dose”. It also gave an SGH (Male Sprague-Dawley rats; 25 μg group, 90 min (time of 2nd peptide 1 dose, after BIM 23014C)) of 5.1 ng/mL, an SGH (Male Sprague-Dawley rats; 25 μg peptide 1 at 30 min, sample 35 min) of 18.4 ng/mL and an SGH (Male Sprague-Dawley rats; 25 μg peptide 1 at 30 min, sample 40 min) of 17.5 ng/mL. For the same molecule, the SGH (Male Sprague-Dawley rats; 25 μg peptide 1 at 30 min, sample 45 min) was 14.0 ng/mL, the SGH (Male Sprague-Dawley rats; 25 μg peptide 1 group, i.v., 30 min (time of 1st peptide 1 dose)) was 16.6 ng/mL and the SGH (Male Sprague-Dawley rats; 50 μg group, 90 min (time of 2nd peptide 1 dose, after BIM 23014C)) was 1.9 ng/mL. For the same molecule, the SGH (Male Sprague-Dawley rats; 50 μg peptide 1 at 30 min, sample 35 min) was 50.2 ng/mL, the SGH (Male Sprague-Dawley rats; 50 μg peptide 1 at 30 min, sample 40 min) was 23.4 ng/mL and the SGH (Male Sprague-Dawley rats; 50 μg peptide 1 at 30 min, sample 45 min) was 15.5 ng/mL. It also gave an SGH (Male Sprague-Dawley rats; 50 μg peptide 1 group, i.v., 30 min (time of 1st peptide 1 dose)) of 19.7 ng/mL, an SGH (Male Sprague-Dawley rats; 2nd dose 5 μg peptide 1 at 90 min after BIM 23014C, sample 95 min) of 3.1 ng/mL and an SGH (Male Sprague-Dawley rats; 2nd dose 5 μg peptide 1 at 90 min after BIM 23014C, sample 100 min) of 1.7 ng/mL. The SGH (Male Sprague-Dawley rats; 2nd dose 5 μg peptide 1 at 90 min after BIM 23014C, sample 105 min) was 1.7 ng/mL, the SGH (Male Sprague-Dawley rats; 2nd dose 5 μg peptide 1 at 90 min after BIM 23014C, sample 135 min) was 1.1 ng/mL and the SGH (Male Sprague-Dawley rats; 2nd dose 25 μg peptide 1 at 90 min after BIM 23014C, sample 95 min) was 11.4 ng/mL. The SGH (Male Sprague-Dawley rats; 2nd dose 25 μg peptide 1 at 90 min after BIM 23014C, sample 100 min) was 10.5 ng/mL, the SGH (Male Sprague-Dawley rats; 2nd dose 25 μg peptide 1 at 90 min after BIM 23014C, sample 105 min) was 7.9 ng/mL and the SGH (Male Sprague-Dawley rats; 2nd dose 25 μg peptide 1 at 90 min after BIM 23014C, sample 135 min) was 5.2 ng/mL. For the same molecule, the SGH (Male Sprague-Dawley rats; 2nd dose 50 μg peptide 1 at 90 min after BIM 23014C, sample 95 min) was 67.3 ng/mL, the SGH (Male Sprague-Dawley rats; 2nd dose 50 μg peptide 1 at 90 min after BIM 23014C, sample 100 min) was 31.8 ng/mL and the SGH (Male Sprague-Dawley rats; 2nd dose 50 μg peptide 1 at 90 min after BIM 23014C, sample 105 min) was 10.5 ng/mL. The SGH (Male Sprague-Dawley rats; 2nd dose 50 μg peptide 1 at 90 min after BIM 23014C, sample 135 min) was 2.6 ng/mL, the “serum GH levels after second dose” value (Male Sprague-Dawley rats; second dose 5 μg, 25 μg or 50 μg after BIM 23014C) was “even greater increase in serum GH levels from the highest dose” and the cAMP (rat SSTR2; Forskolin 1.25 μM + MK 678 10 nM, Peptide 1 1 μM) was 1.14 pM per 4 × 10^4 cells. It also gave a cAMP (rat SSTR2; Forskolin 1.25 μM + MK 678 10 nM, Peptide 1 10 μM) of 2.69 pM per 4 × 10^4 cells, a cAMP (rat SSTR2; Forskolin 1.25 μM + MK 678 10 nM, Peptide 1 50 μM) of 3.32 pM per 4 × 10^4 cells and a cAMP (rat SSTR2; Forskolin 1.25 μM, no MK 678, Peptide 1 1 μM) of 2.57 pM per 4 × 10^4 cells. For the same molecule, the cAMP (rat SSTR2; Forskolin 1.25 μM, no MK 678, Peptide 1 10 μM) was 3.05 pM per 4 × 10^4 cells, the cAMP (rat SSTR2; Forskolin 1.25 μM, no MK 678, Peptide 1 50 μM) was 3.33 pM per 4 × 10^4 cells and the “mode of antagonism from agonist dose response curves” value (rat SSTR2; S-14 or MK678 dose response with or without peptide 1) was “directly competing with the SRIF agonists”. For the same molecule, the “forskolin-stimulated cAMP levels in the absence of SRIF (inverse agonist activity)” value (rat SSTR2; no added SRIF) was “causes an increase in forskolin-stimulated cAMP levels even in the absence of SRIF”.
